Results published in patent US20240301409A1, “Chemically Modified Small Activating RNA” (RACTIGEN THERAPEUTICS, priority 2021, published 2024).

Tested on: J82 cells
Test: Cellular proliferation assay (CCK8) in J82 cells, combined with Mitomycin C or valrubicin
Type: cell-based, human
Protocol: J82 cells were transfected with RAG1-40-31 at concentrations of 0.1, 0.5, 1, 5, 10, 25 and 50 nM for 24 hours, and then Mitomycin C at concentrations of 1, 10, 100, 1000 and 10000 nM was added. The combined treatment was carried out with concentrations in pairs. After treatment, the proliferation of cells was detected using CCK8 kit. FIGS. 14A-14B show the relative proliferation proportion of J82 cells after the combined treatment with chemically modified saRNA RAG1-40-31 and valrubicin. […] Control and DMSO are the blank transfection control and the solvent for dilution control, respectively.
J82 cells were transfected with RAG1-40-31 at concentrations of 0.1, 0.5, 1, 5, 10, 25 and 50 nM for 24 hours, and then valrubicin at concentrations of 1, 10, 100, 1000 and 10000 nM was added. The combined treatment was carried out with concentrations in pairs. After treatment, the cellular proliferation was detected by CCK8 kit. FIGS. 15A-15B show the relative proliferation proportion of T24 cells after the combined treatment with chemically modified saRNA RAG1-40-31 and Mitomycin C. […] Control and DMSO are the blank transfection control and the solvent for dilution control, respectively.
Human bladder cancer cells Ku-7-LG (ATCC), J82 (ATCC) and T24 (ATCC) were cultured in McCoy medium (Gibco) comprising 10% calf serum (Sigma-Aldrich) and 1% penicillin/Streptomycin (Gibco). Cells were cultured at 37° C. under 5% CO2. Ku-7-LG, J82 and T24 cells were plated into 12-well plates at 10×10^4 cells per well, transfected with the small RNA at a concentration of 10 nM (unless otherwise specified) for three days, using RNAiMax (Invitrogen, Carlsbad, CA) according to the manufacturer's instructions. Two replicate wells were set for each treatment.
Cells were plated in a 96-well plate at 2˜4×10^3 cells/well, cultured overnight, and transfected with the oligonucleotide duplexes. Three days after transfection, CCK8 (Dojindo) was used to detect cellular proliferation following manufacturer's instructions. The experimental steps are briefly described as follows: 10 μL of CCK8 solution was added to each well, incubated at 37° C. for 1 hour, and then the absorbance at 450 nm was measured using a microplate reader.
In this example, chemically modified saRNA RAG1-40-31 was used in combination with clinical chemical agents to evaluate the suppressing effect of the combined agents on cancer cells.

## RAG1-40-31: saRNA duplex: sense fCfCAACUCAUUCUCCAAG*U*C (SEQ ID NO 16); antisense U*A*fCfUfUGGAGAAfUGAGfUfUGG*fC*A (SEQ ID NO 12) (sense CCAACUCAUUCUCCAAGUC; antisense UACUUGGAGAAUGAGUUGGCA; 2'-F and phosphorothioate modifications; modified_base (1)..(2) (1,2)=2′-fluoro; modified_base (17)..(19) (17,18,19)=phosphorothioate (PS) backbone modification; modified_base (2)..(21) (2,3,19,20,21)=phosphorothioate (PS) backbone modification; modified_base (3)..(20) (3,4,5,12,16,17,20)=2′-fluoro)
RAG1-40-31 0.1 nM + MMC 10000 nM
  Relative proliferation proportion of J82 cells: 1.5%
RAG1-40-31 0.1 nM + valrubicin 1 nM
  Relative proliferation proportion of J82 cells: 71.0%
RAG1-40-31 0.1 nM + valrubicin 10 nM
  Relative proliferation proportion of J82 cells: 58.2%
RAG1-40-31 0.1 nM + valrubicin 100 nM
  Relative proliferation proportion of J82 cells: 73.2%
RAG1-40-31 0.1 nM + valrubicin 1000 nM
  Relative proliferation proportion of J82 cells: 26.9%
RAG1-40-31 0.1 nM + valrubicin 10000 nM
  Relative proliferation proportion of J82 cells: 9.9%
RAG1-40-31 0.1 nM, Control (no MMC)
  Relative proliferation proportion of J82 cells: 97.9%
RAG1-40-31 0.1 nM, Control (no valrubicin)
  Relative proliferation proportion of J82 cells: 85.1%
RAG1-40-31 0.5 nM + MMC 1 nM
  Relative proliferation proportion of J82 cells: 70.1%
RAG1-40-31 0.5 nM + MMC 10 nM
  Relative proliferation proportion of J82 cells: 69.3%
RAG1-40-31 0.5 nM + MMC 100 nM
  Relative proliferation proportion of J82 cells: 34.9%
RAG1-40-31 0.5 nM + MMC 1000 nM
  Relative proliferation proportion of J82 cells: 10.8%
RAG1-40-31 0.5 nM + MMC 10000 nM
  Relative proliferation proportion of J82 cells: 0.9%
RAG1-40-31 0.5 nM + valrubicin 1 nM
  Relative proliferation proportion of J82 cells: 62.4%
RAG1-40-31 0.5 nM + valrubicin 10 nM
  Relative proliferation proportion of J82 cells: 54.1%
RAG1-40-31 0.5 nM + valrubicin 100 nM
  Relative proliferation proportion of J82 cells: 72.8%
RAG1-40-31 0.5 nM + valrubicin 1000 nM
  Relative proliferation proportion of J82 cells: 24.4%
RAG1-40-31 0.5 nM + valrubicin 10000 nM
  Relative proliferation proportion of J82 cells: 7.7%
RAG1-40-31 0.5 nM, Control (no MMC)
  Relative proliferation proportion of J82 cells: 89.9%
RAG1-40-31 0.5 nM, Control (no valrubicin)
  Relative proliferation proportion of J82 cells: 77.8%
RAG1-40-31 1 nM + MMC 1 nM
  Relative proliferation proportion of J82 cells: 55.8%
RAG1-40-31 1 nM + MMC 10 nM
  Relative proliferation proportion of J82 cells: 57.2%
RAG1-40-31 1 nM + MMC 100 nM
  Relative proliferation proportion of J82 cells: 30.1%
RAG1-40-31 1 nM + MMC 1000 nM
  Relative proliferation proportion of J82 cells: 9.3%
RAG1-40-31 1 nM + MMC 10000 nM
  Relative proliferation proportion of J82 cells: 1.4%
RAG1-40-31 1 nM + valrubicin 1 nM
  Relative proliferation proportion of J82 cells: 59.8%
RAG1-40-31 1 nM + valrubicin 10 nM
  Relative proliferation proportion of J82 cells: 51.6%
RAG1-40-31 1 nM + valrubicin 100 nM
  Relative proliferation proportion of J82 cells: 54.4%
RAG1-40-31 1 nM + valrubicin 1000 nM
  Relative proliferation proportion of J82 cells: 22.7%
RAG1-40-31 1 nM + valrubicin 10000 nM
  Relative proliferation proportion of J82 cells: 7.5%
RAG1-40-31 1 nM, Control (no MMC)
  Relative proliferation proportion of J82 cells: 79.8%
RAG1-40-31 1 nM, Control (no valrubicin)
  Relative proliferation proportion of J82 cells: 73.9%
RAG1-40-31 5 nM + MMC 1 nM
  Relative proliferation proportion of J82 cells: 42.8%
RAG1-40-31 5 nM + MMC 10 nM
  Relative proliferation proportion of J82 cells: 40.8%
RAG1-40-31 5 nM + MMC 100 nM
  Relative proliferation proportion of J82 cells: 26.2%
RAG1-40-31 5 nM + MMC 1000 nM
  Relative proliferation proportion of J82 cells: 7.2%
RAG1-40-31 5 nM + MMC 10000 nM
  Relative proliferation proportion of J82 cells: 1.2%
RAG1-40-31 5 nM + valrubicin 1 nM
  Relative proliferation proportion of J82 cells: 37.9%
RAG1-40-31 5 nM + valrubicin 10 nM
  Relative proliferation proportion of J82 cells: 46.6%
RAG1-40-31 5 nM + valrubicin 100 nM
  Relative proliferation proportion of J82 cells: 50.9%
RAG1-40-31 5 nM + valrubicin 1000 nM
  Relative proliferation proportion of J82 cells: 22.6%
RAG1-40-31 5 nM + valrubicin 10000 nM
  Relative proliferation proportion of J82 cells: 5.5%
RAG1-40-31 5 nM, Control (no MMC)
  Relative proliferation proportion of J82 cells: 59.3%
RAG1-40-31 5 nM, Control (no valrubicin)
  Relative proliferation proportion of J82 cells: 58.4%
RAG1-40-31 10 nM + MMC 1 nM
  Relative proliferation proportion of J82 cells: 37.0%
RAG1-40-31 10 nM + MMC 10 nM
  Relative proliferation proportion of J82 cells: 37.7%
RAG1-40-31 10 nM + MMC 100 nM
  Relative proliferation proportion of J82 cells: 22.2%
RAG1-40-31 10 nM + MMC 1000 nM
  Relative proliferation proportion of J82 cells: 6.9%
RAG1-40-31 10 nM + MMC 10000 nM
  Relative proliferation proportion of J82 cells: 1.0%
RAG1-40-31 10 nM + valrubicin 1 nM
  Relative proliferation proportion of J82 cells: 33.1%
RAG1-40-31 10 nM + valrubicin 10 nM
  Relative proliferation proportion of J82 cells: 37.1%
RAG1-40-31 10 nM + valrubicin 100 nM
  Relative proliferation proportion of J82 cells: 40.4%
RAG1-40-31 10 nM + valrubicin 1000 nM
  Relative proliferation proportion of J82 cells: 20.3%
RAG1-40-31 10 nM + valrubicin 10000 nM
  Relative proliferation proportion of J82 cells: 4.3%
RAG1-40-31 10 nM, Control (no MMC)
  Relative proliferation proportion of J82 cells: 48.9%
RAG1-40-31 10 nM, Control (no valrubicin)
  Relative proliferation proportion of J82 cells: 50.6%
RAG1-40-31 25 nM + MMC 1 nM
  Relative proliferation proportion of J82 cells: 20.8%
RAG1-40-31 25 nM + MMC 10 nM
  Relative proliferation proportion of J82 cells: 25.7%
RAG1-40-31 25 nM + MMC 100 nM
  Relative proliferation proportion of J82 cells: 17.2%
RAG1-40-31 25 nM + MMC 1000 nM
  Relative proliferation proportion of J82 cells: 5.0%
RAG1-40-31 25 nM + MMC 10000 nM
  Relative proliferation proportion of J82 cells: 0.4%
RAG1-40-31 25 nM + valrubicin 1 nM
  Relative proliferation proportion of J82 cells: 26.1%
RAG1-40-31 25 nM + valrubicin 10 nM
  Relative proliferation proportion of J82 cells: 23.9%
RAG1-40-31 25 nM + valrubicin 100 nM
  Relative proliferation proportion of J82 cells: 26.3%
RAG1-40-31 25 nM + valrubicin 1000 nM
  Relative proliferation proportion of J82 cells: 13.3%
RAG1-40-31 25 nM + valrubicin 10000 nM
  Relative proliferation proportion of J82 cells: 2.7%
RAG1-40-31 25 nM, Control (no MMC)
  Relative proliferation proportion of J82 cells: 38.4%
RAG1-40-31 25 nM, Control (no valrubicin)
  Relative proliferation proportion of J82 cells: 45.6%
RAG1-40-31 50 nM + MMC 1 nM
  Relative proliferation proportion of J82 cells: 25.9%
RAG1-40-31 50 nM + MMC 10 nM
  Relative proliferation proportion of J82 cells: 25.8%
RAG1-40-31 50 nM + MMC 100 nM
  Relative proliferation proportion of J82 cells: 13.9%
RAG1-40-31 50 nM + MMC 1000 nM
  Relative proliferation proportion of J82 cells: 3.4%
RAG1-40-31 50 nM + MMC 10000 nM
  Relative proliferation proportion of J82 cells: 0.6%
RAG1-40-31 50 nM + valrubicin 1 nM
  Relative proliferation proportion of J82 cells: 19.7%
RAG1-40-31 50 nM + valrubicin 10 nM
  Relative proliferation proportion of J82 cells: 21.4%
RAG1-40-31 50 nM + valrubicin 100 nM
  Relative proliferation proportion of J82 cells: 23.9%
RAG1-40-31 50 nM + valrubicin 1000 nM
  Relative proliferation proportion of J82 cells: 14.8%
RAG1-40-31 50 nM + valrubicin 10000 nM
  Relative proliferation proportion of J82 cells: 3.2%
RAG1-40-31 50 nM, Control (no MMC)
  Relative proliferation proportion of J82 cells: 34.8%
RAG1-40-31 50 nM, Control (no valrubicin)
  Relative proliferation proportion of J82 cells: 33.5%
